Measured values: the METLIN SMRT retention time set (Domingo-Almenara et al. 2019)

Test: gradient 5% acetonitrile 3 min, to 50% in 2 min, to 85% in 15 min, held 3 min, 100 µL/min
Settings: column: Zorbax Extend-C18 2.1 x 50 mm; eluents: water / acetonitrile, 0.1% formic acid
Summary of the method: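 Pure standards were run in mixtures of ~100 molecules by HPLC coupled to a quadrupole time-of-flight mass spectrometer. The column was a Zorbax Extend-C18 (2.1 × 50 mm, 1.8 μm) at 100 μL/min, with water and acetonitrile each containing 0.1% formic acid, in positive and negative ionization mode. Dead and dwell volumes were 40 μL and 900 μL. Retention time was taken from computationally picked adduct peaks, each manually inspected, with data collected over 3 months.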

Row | RP-LC retention time | SMILES
1 | 1040 s | CC(C)CNC(=O)c1cc2c(s1)N(CC1CC1)CCCC2
2 | 721 s | CN1C(=O)C(c2c(-c3ccc4ccccc4c3)[nH]c3[nH]c(=O)[nH]c(=O)c23)c2ccccc21 (stereo unspecified)
3 | 684 s | O=C(NCc1ccccc1Cl)C1CCN(c2cnc(N3CCCC3)nc2)CC1
4 | 893 s | CCOC(=O)c1c(C)[nH]c(C(=O)N2CCCC(C(=O)NCCC3=CCCCC3)C2)c1C (stereo unspecified)
5 | 722 s | Cc1nnc(-c2ccc(S(=O)(=O)NCc3ccco3)o2)o1
6 | 801 s | Cc1nn(C)c(=O)c2cc(S(=O)(=O)NC(C)c3ccccc3)cn12 (stereo unspecified)
7 | 854 s | Cc1cc(C)n(-c2nc(CC(=O)NCc3ccc(F)cc3)cs2)n1
8 | 911 s | Cc1noc(C)c1-c1ccc(S(=O)(=O)NC2CCCC2)cc1
9 | 837 s | CCC1Oc2ccc(S(=O)(=O)N3CCC(C(=O)Nc4cc(C)ccc4C)CC3)cc2NC1=O (stereo unspecified)
10 | 597 s | O=C(c1nc2ccccc2nc1Cl)N1CCN(c2ccccn2)CC1
11 | 690 s | OC(CN1CCN(c2cccc(Cl)c2)CC1)c1ccc2c(c1)OCO2 (stereo unspecified)
12 | 793 s | Cc1[nH]c(C(=O)N2CCN(c3ccccc3F)CC2)c(C)c1S(=O)(=O)N1CCOCC1
13 | 625 s | CCC(=O)N(C1CCOCC1)C1CCN(Cc2cc(F)c(F)c(F)c2)CC1
14 | 661 s | CCCCNC(=O)c1cc(NS(=O)(=O)c2c(C)cc(C)cc2C)cnc1N1CCNCC1
15 | 636 s | CCn1cnc(S(=O)(=O)N2CCC(C(=O)Nc3nccs3)CC2)c1
16 | 980 s | COC(=O)c1cnc(N2CCN(c3ccc(OC)cc3)CC2)c2ccccc12
17 | 539 s | CNC(=O)[C@@H]1CN(C(=O)c2cnccn2)C[C@H]1c1n[nH]c(C)n1
18 | 990 s | O=C(Cn1cccc(-c2nc(-c3ccc(Br)cc3)no2)c1=O)Nc1ccc(F)cc1F
19 | 1010 s | Cc1cc(C)cc(NS(=O)(=O)c2cc(-c3nc(C)cs3)cs2)c1
20 | 861 s | CC(C)CN1C(=O)CCc2cc(NS(=O)(=O)c3ccc(F)cc3)ccc21
21 | 962 s | CCOC(=O)CNC(=O)C1CC(=O)N(CCc2c[nH]c3ccc(F)cc23)C1 (stereo unspecified)
22 | 664 s | Cc1[nH]c(C)c(S(=O)(=O)N2CCC(C(=O)NCc3cccs3)CC2)c1C(=O)N1CCCC1
23 | 990 s | COc1ccc(OC)c2sc(NC(=O)c3ccc(Cl)s3)nc12

Row | RP-LC retention time | SMILES
24 | 1430 s | COc1ccc(-c2nc(-c3ccc4oc(-c5ccccc5)nc4c3)no2)cn1
25 | 899 s | Cc1cc(NC(=O)C2CCCN(c3ccc(=O)n(-c4ccc(F)cc4)n3)C2)ccc1Br (stereo unspecified)
26 | 964 s | CCC(c1cccs1)N1C(=O)[C@H]2CN(S(=O)(=O)Cc3ccccc3)C[C@H]2C1=O (stereo partly specified)
27 | 594 s | CCCn1ncc(N2CCC(C(=O)NCCCN3CCCC3=O)CC2)cc1=O
28 | 761 s | CN(C(=O)Cn1c(=O)oc2ccc(C(=O)N3CCCC3)cc21)C1CCCCC1
29 | 732 s | Cc1cc(C)n(CCNc2nc3c(F)cc(F)cc3s2)n1
30 | 490 s | CNc1nccc(N2CCC(CC(=O)NCCCN3CCCC3=O)CC2)n1
31 | 565 s | O=C(Cn1c(CO)nc2ccccc21)N1CCCC1
32 | 778 s | Cc1cccc(N2CCN(CCNC(=O)c3cc4sccc4n3C)CC2)c1C
33 | 650 s | CCC(=O)N1CCc2cc(C(=O)NC3CC3)ccc21
34 | 986 s | CC(NC(=O)C1CCCN(c2nccnc2Oc2ccccc2)C1)c1ccccc1 (stereo unspecified)
35 | 730 s | CCn1c(CC2C(=O)Nc3ccccc32)nc2ccccc2c1=O (stereo unspecified)
36 | 877 s | Cc1sc(-c2nnc(C3CC3)o2)cc1NC(=O)Cc1c[nH]c2ccccc12
37 | 824 s | CCOC(=O)c1c(C)[nH]c(C(=O)N2CCC(CC(=O)NCc3cccc(Cl)c3)CC2)c1C
38 | 729 s | COc1ccc(NC(=O)C2CCN(C(=O)C3Sc4ccccc4NC3=O)CC2)cc1 (stereo unspecified)
39 | 568 s | C=CCNC(=O)c1ccc2[nH]c(C)c(C)c2c1
40 | 583 s | Cc1nc(NC(=O)c2ccccc2)n[nH]1
41 | 850 s | CSc1ccc(CNC(=O)CN2C(=O)C3CCCCN3c3ccc(C(=O)N4CCCC4)cc32)cc1 (stereo unspecified)
42 | 881 s | COc1ccc(OC)c(S(=O)(=O)N2CCC(n3cnc4ccc(C)cc4c3=O)CC2)c1
43 | 580 s | Cc1ccc(C)c(NC(=O)N2CCc3nc[nH]c3C2)c1
44 | 625 s | COc1cc(NC(=O)Cn2ccnc2-c2ccnc(N3CCOCC3)c2)cc(OC)c1
45 | 649 s | CCCn1cnc2cc(CNC(=O)CCC3CCCC3)ccc21
46 | 739 s | Cc1oc(-c2[nH]ncc2C(=O)N2CCCC2)cc1S(=O)(=O)Nc1ccc(Cl)cc1

Row | RP-LC retention time | SMILES
47 | 705 s | CCOC(=O)c1noc2ncnc(NCC3CCN(Cc4cccc(F)c4)CC3)c12
48 | 879 s | COc1ccc(CN2C(=O)CC(c3ccc(OC)c(OC)c3)CC2=O)cc1
49 | 649 s | Cc1cnc(C(=O)N2CCCCCC2c2nnc(C)o2)cn1 (stereo unspecified)
50 | 716 s | CCN1C(=O)Cc2ccccc2C1C(=O)NCc1cccs1 (stereo unspecified)
51 | 944 s | CCOc1ccc2nc(C(=O)NCc3cccc(Br)c3)cn2n1
52 | 653 s | CCC(=O)Nc1ccc(-n2cnc(C(=O)N3CCN(c4ccc(OC)cc4)CC3)c2)nc1
53 | 660 s | CN1CCN(c2ncc3c(n2)CC(c2cc(F)cc(F)c2)CC3=O)CC1 (stereo unspecified)
54 | 992 s | CC(C)CCNC(=O)C1(C)CN(S(=O)(=O)c2ccccc2)CC(=O)N1c1ccc(Cl)cc1 (stereo unspecified)
55 | 830 s | COc1ccc2nc(C(=O)NCc3ccc(Cl)cc3)cn2n1
56 | 658 s | COc1ccc(C(=O)N2CCC(c3cc(N)on3)CC2)c(OC)c1
57 | 806 s | Cc1ccc(-c2cc3c(=O)n(Cc4noc(CN5CCCCCCC5)n4)ccn3n2)cc1C
58 | 677 s | CC(C)(C)c1cnc(CSc2cnc(NC(=O)C3CCNCC3)s2)o1
59 | 881 s | CC1Cc2ccccc2N1C(=O)Cc1csc2nc(-c3ccccc3)cn12 (stereo unspecified)
60 | 860 s | Cc1cccc(-c2cc3n(n2)CCCN(C(=O)c2n[nH]c4ccccc24)C3)c1
61 | 885 s | Cc1cc2c(c(=O)n(-c3ccccc3)c(=O)n2CC(=O)Nc2ccc(Cl)cc2)n1C
62 | 983 s | CCN1C(=O)C2(CCN(S(=O)(=O)c3cccs3)CC2)c2ccccc21
63 | 728 s | Cc1cc(F)ccc1NC(=O)c1cn2c(n1)CSCC2
64 | 933 s | O=C(NCCc1ccsc1)c1ccc(Cl)c(Cl)c1
65 | 981 s | Cc1occc1-c1nnc(SC(C)C(=O)N2CCCc3ccccc32)o1 (stereo unspecified)
66 | 572 s | O=C(CN1C(=O)COc2ccc(C(=O)N3CCN(c4ccccn4)CC3)cc21)N1CCCC1
67 | 771 s | COc1ccc(NC(=O)c2cnc3c(c2)c(=O)n(C)c(=O)n3-c2ccccc2)cc1OC
68 | 611 s | Cc1ccc(NC(=O)Cn2c(N)nc(C)c(C)c2=O)cc1
69 | 999 s | O=c1c(S(=O)(=O)N2CCCCCC2)cccn1Cc1cc(F)cc(F)c1

Row | RP-LC retention time | SMILES
70 | 940 s | O=C1CC(c2nc(-c3ccccc3)no2)CN1c1ccc(F)cc1 (stereo unspecified)
71 | 714 s | CCOc1ccc(-n2nnnc2CNC(=O)NCc2cccs2)cc1
72 | 811 s | O=C(Cc1ccsc1)N1CCC(n2c(-c3ccoc3)nc3cccnc32)C1 (stereo unspecified)
73 | 1080 s | COc1cc(/C=C2/C(=O)N(c3ccccc3)N=C2C)ccc1OCC(=O)Nc1ccccc1
74 | 610 s | Cc1ccc2cc(CCC(=O)N3CCN(C4CCCCC4)CC3)c(=O)[nH]c2c1
75 | 977 s | Cn1c(=O)c(N2CCC(NC(=O)Nc3ccc(Br)cc3)CC2)nc2ccccc21
76 | 758 s | COc1ccc(C(=O)NCCc2c[nH]c3ccc(F)cc23)cc1OC
77 | 789 s | Cc1ccc(-c2cn3cccnc3n2)cc1NC(=O)CCC1CCCCC1
78 | 835 s | COc1ccc(-c2noc(-c3nn(-c4ccc(F)c(F)c4)ccc3=O)n2)cc1OC
79 | 772 s | CC1CCCN(c2ccn3c(=O)n(CC(=O)NCc4ccc(F)cc4F)nc3n2)C1 (stereo unspecified)
80 | 1060 s | Cc1ccc(Sc2nccnc2N2CCCC(C(=O)NCc3ccc4c(c3)OCO4)C2)cc1 (stereo unspecified)
81 | 609 s | CC(=O)Nc1ccc(-c2cc(C(=O)N3CCN(c4ccccn4)CC3)c3ccccc3n2)cc1
82 | 705 s | Cc1cc(NC(=O)c2ccccc2)cc(C)c1O
83 | 566 s | c1ccc(Cn2cnnc2C2CCN(CC3CC3)CC2)cc1
84 | 580 s | COc1ccc(OC)c(NC(=O)N2CCc3nc[nH]c3C2)c1
85 | 855 s | Cc1cc(=O)n(CC(=O)Nc2ccc(Cl)cc2)c(N2CCc3ccccc3C2)n1
86 | 700 s | CCOc1ccc(C2C(C(=O)OCCOC)=C(C)NC3=C2C(=O)CCC3)cc1OC (stereo unspecified)
87 | 850 s | COc1ccc(S(=O)(=O)N2CC3CN(C(=O)C4CCCCC4)CC(C2)O3)cc1
88 | 685 s | COCC(C)NC(=O)C(=O)Nc1ccc2c(c1)OCCO2 (stereo unspecified)
89 | 608 s | O=C(CNC(=O)c1ccc(F)cc1)Nc1nc2ccccc2[nH]1

Row | SMILES | RP-LC retention time
90 | Cn1c(=O)sc2cc(S(=O)(=O)N3CCC(C(=O)N4CCC5(CC4)OCCO5)CC3)ccc21 | 709 s
91 | O=C(CCc1nc2ccccc2s1)N1[C@H]2CC[C@@H]1c1cnc(-c3ccc(F)cc3)nc1C2 | 960 s
